Assays:
Assay type in all cases: in vivo
[1] = tested on: spontaneously stroke-developing rat [自然発症脳卒中ラット (SHR−SP)]; assay: Example 3: blood pressure lowering and body weight in SHR-SP given 0.003% L-NAME drinking water
[2] = tested on: SHR-SP rat, neurological symptoms [SHR−SPに対する神経症状]; assay: Example 2: delay of neurological symptom onset and life prolongation in SHR-SP (1% saline drinking water); conditions: for mean number of days from onset to death / mean number of days to death / mean number of days to onset of neurological symptoms: 1.8% in feed
[3] = tested on: SHR-SP rat, neurological symptoms [SHR−SPに対する神経症状]; assay: Example 3: delay of neurological symptom onset, life prolongation and brain microvessel protection in SHR-SP given 0.003% L-NAME
[4] = tested on: spontaneously stroke-developing rat [自然発症脳卒中ラット(SHR-SP)]; assay: Example 2: blood pressure lowering, body weight and mortality in stroke-prone rats (1% saline drinking water); conditions: for blood pressure (systolic) / body weight: 1.8% in feed
[5] = tested on: WKY rat (Wistar-Kyoto rat) [WKYラット(Wistar-Kyoto rat)]; assay: Example 1: blood pressure and body weight in normotensive WKY rats (1% saline drinking water)
[6] = tested on: spontaneously hypertensive rat [自然発症高血圧ラット(SHR)]; assay: Example 1: blood pressure lowering and body weight in spontaneously hypertensive rats (1% saline drinking water)
[7] = FA-Arg 1.8% in feed, pre-value (week 0)
[8] = n = 7, listed as FA−Arg塩, L−アルギニン塩
[9] = FA-Arg 1.8% in feed, 8-week observation
[10] = FA-Arg 1.8% in feed, n = 7, 8-week observation
[11] = WKY, FA 2.7% in feed until week 6, then normal feed, week 9
[12] = WKY, FA 2.7% in feed until week 6, then normal feed, week 12
[13] = WKY, FA 2.7% in feed, pre-value (week 0)
[14] = FA 2.7% in feed, pre-value (week 0)
[15] = FA 2.7% in feed, 8-week observation
[16] = FA 2.7% in feed, n = 6, 8-week observation
[17] = FA 1.8% in feed until week 6, then normal feed, week 9
[18] = FA 1.8% in feed until week 6, then normal feed, week 12
[19] = FA 1.8% in feed, pre-value (week 0)
[20] = FA 2.7% in feed until week 6, then normal feed, week 9
[21] = FA 2.7% in feed until week 6, then normal feed, week 12

## COc1cc(C=CC(=O)O)ccc1O [FA−Arg, フェルラ酸−L−アルギニン塩]
[1]; FA-Arg 1.8% in feed, at week 7
  deaths: 1 cases
[1]; FA-Arg 1.8% in feed, at week 8
  deaths: 1 cases
[1]; [7]
  blood pressure (systolic): 116.0 ±4.3 mmHg
  body weight: 102.7 ± 2.9 g
[1]; FA-Arg 1.8% in feed, week 2
  blood pressure (systolic): 146.4 ±5.0 mmHg
  body weight: 179.9 ± 4.0 g
[1]; FA-Arg 1.8% in feed, week 4
  blood pressure (systolic): 183.6± 5.7 mmHg
  body weight: 225.7 ± 3.0 g
[1]; FA-Arg 1.8% in feed, week 6
  blood pressure (systolic): 205.7±7.7 mmHg
  body weight: 244.3 ± 4.2 g
[1]; FA-Arg 1.8% in feed, week 8
  blood pressure (systolic): 221.8± 7.1 mmHg
  body weight: 263.6 ± 6.9 g
[2]; [8]
  mean number of days from onset to death: 8.2 ± 2.2 days
  mean number of days to death: 73.9 ± 4.7 days
  mean number of days to onset of neurological symptoms: 65.4 ± 4.8 days
[3]; [9]
  animals that died / animals used: 2/7
  animals with onset of neurological symptoms / animals used: 2/7
[3]; [10]
  mean number of days to death: 55.0 ± 1.0 days
  mean number of days to onset of neurological symptoms: 54.9 ± 1.1 days
[4]; pre-value (week 0), L−アルギニン塩
  blood pressure (systolic): 122.8 ±4.6 mmHg
  body weight: 103.2 ± 3.2 g
[4]; week 2, L−アルギニン塩
  blood pressure (systolic): 155.2 ±4.6 mmHg
  body weight: 156.7 ± 3.8 g
[4]; week 4, L−アルギニン塩
  blood pressure (systolic): 196.1 ± 5.8 mmHg
  body weight: 204.4 ± 4.5 g
[4]; week 7, L−アルギニン塩
  body weight: 226.4 ± 10.9 g

## COc1cc(C=CC(=O)O)ccc1O [FA, フェルラ酸]
[5]; [11]
  blood pressure (systolic): 124.0 ±3.7 mmHg
  body weight: 310.1 ± 7.3 g
[5]; [12]
  blood pressure (systolic): 135.5 ± 2.8 mmHg
  body weight: 349.2 ± 12.0 g
[5]; [13]
  blood pressure (systolic): 99.5 ±3.1 mmHg
  body weight: 122.2 ± 2.8 g
[5]; WKY, FA 2.7% in feed, week 6
  blood pressure (systolic): 128.4 ±4.7 mmHg
  body weight: 263.2 ± 4.3 g
[5]; WKY, FA group
  suppression of body weight (in words): 体重の有意な抑制がみられた
[5]; normotensive WKY rats
  blood pressure lowering effect (in words): 降圧作用を示さず
[1]; [14]
  blood pressure (systolic): 115.0 ±4.7 mmHg
  body weight: 107.7 ± 1.9 g
[1]; FA 2.7% in feed, week 2
  blood pressure (systolic): 141.4 ±3.1 mmHg
  body weight: 137.6 ± 3.0 g
[1]; FA 2.7% in feed, week 4
  blood pressure (systolic): 185.1± 1.9 mmHg
  body weight: 175.9 ± 3.2 g
[1]; FA 2.7% in feed, week 6
  blood pressure (systolic): 203.1±7.5 mmHg
  body weight: 195.1 ± 5.0 g
[1]; FA 2.7% in feed, week 8
  blood pressure (systolic): 207.8± 6.0 mmHg
  body weight: 213.5 ± 7.4 g
[2]; n = 7
  mean number of days from onset to death: 10.4 ± 0.6 days
  mean number of days to death: 70.0 ± 1.8 days
  mean number of days to onset of neurological symptoms: 59.6 ± 1.4 days
[2]; versus control without test substance
  delay of neurological symptom onset and life prolongation (in words): 明らかな神経症状発症遅延効果および延命効果を示している
[3]; 8-week observation, versus control
  preventive effect (in words): 明らかな予防効果が見られた
[3]; [15]
  animals that died / animals used: 0/6
  animals with onset of neurological symptoms / animals used: 0/6
[3]; [16]
  mean number of days to death: 56.0 ± 0.0 days
  mean number of days to onset of neurological symptoms: 56.0 ± 0.0 days
[3]; from start of administration, versus control
  mean number of days to onset of neurological symptoms or death (in words): 有意に延長していた
[3]; order FA group, FA-Arg salt group
  protection of brain microvessels (in words): FA投与群、FA−Arg塩投与群の順で脳内微細血管が保護されたことが示唆された
[4]; pre-value (week 0)
  blood pressure (systolic): 124.5 ±5.5 mmHg
  body weight: 94.0 ± 2.3 g
[4]; week 2
  blood pressure (systolic): 150.2 ±6.1 mmHg
  body weight: 148.8 ± 3.3 g
[4]; week 4
  blood pressure (systolic): 203.4 ±4.6 mmHg
  body weight: 198.2 ± 3.1 g
[4]; week 7
  body weight: 233.0 ± 3.8 g
[4]; from week 2 on, versus control without test substance
  blood pressure lowering effect (in words): 有意な降圧効果が観察された
[6]; FA 1.8% group, at week 9-10 (after change to normal feed at week 6)
  deaths: 1 cases
[6]; [17]
  blood pressure (systolic): 225.6 ±6.1 mmHg
  body weight: 293.8 ± 5.0 g
[6]; [18]
  blood pressure (systolic): 233.6 ± 6.0 mmHg
  body weight: 307.0 ± 6.7 g
[6]; [19]
  blood pressure (systolic): 128.5 ±2.2 mmHg
  body weight: 135.5 ± 1.8 g
[6]; FA 1.8% in feed, week 6
  blood pressure (systolic): 201.1 ±6.2 mmHg
  body weight: 264.8 ± 4.1 g
[6]; [20]
  blood pressure (systolic): 211.8 ±3.1 mmHg
  body weight: 292.1 ± 3.0 g
[6]; [21]
  blood pressure (systolic): 217.7 ± 4.7 mmHg
  body weight: 309.4 ± 3.1 g
[6]; [14]
  blood pressure (systolic): 135.4 ±2.7 mmHg
  body weight: 136.8 ± 1.5 g
[6]; FA 2.7% in feed, week 6
  blood pressure (systolic): 192.0 ±2.5 mmHg
  body weight: 239.5 ± 3.4 g
[6]; FA groups
  suppression of body weight (in words): 体重の有意な抑制がみられた
[6]; during 6 weeks of administration
  blood pressure lowering effect (in words): 用量依存的に有意な降圧作用を示した
